Like-named read-outs stand apart in the source and are kept apart here.
Experiments:
[1] = tested on: MCF-7 cells; experiment: Cellular uptake of metformin sulfonamides in MCF-7 cells (HPLC); format: in vitro ADME, human
Procedure: (§1) The uptake of metformin sulfonamides (1–9) in MCF-7 and MDA-MB-231 cells was studied by incubation of the cells with 10−3000 μmol/L of compounds in 250 μL of prewarmed HBSS buffer at 37 °C for 10 min. Subsequently, the cells were then washed three times with 500 μL of ice-cold HBSS and lysed with 250 μL of 0.1-M NaOH. The samples were collected, centrifuged (5 min, 1400 rpm) and the supernatants were analyzed by the HPLC method. The concentration of each compound in the cells was calculated on the basis of the standard curve prepared by spiking known amounts of every compound on the cell layers in 250 μL of 0.1-M NaOH.
(§2) The concentration of the studied sulfonamides (1–9) was assessed using the HPLC system, consisting of an Agilent 1100 binary pump (Agilent Technologies Inc., Wilmington, DE, USA), an 1100 micro-vacuum degasser, an HP 1050 autosampler and an HP 1050 variable wavelength detector (operated at 235 nm). The chromatographic separations of compounds 1–9 were conducted on an Agilent Zorbax SB-C18 analytical column (4.6 mm × 150 mm, 5 μm) using an isocratic elution of water containing 0.1% formic acid (pH ca. 3.0) and acetonitrile containing 0.1% formic acid with a changing ratio, depending on the compound. The analyses were conducted at room temperature (RT). The detailed procedure of chromatographic analysis was described in our previous paper. The studies were conducted in quadruplicates.
(§3) The protein concentrations in representative wells of each plate were assessed using a Bio-Rad protein assay according to the Bradford method (EnVision, PerkinElmer, Inc., Waltham, MA, USA).

[2] = tested on: MCF-7 cells; experiment: Cell viability WST-1 assay, MCF-7; format: cell-based; details: Homo sapiens, MCF7; WST-1, 24 h, mean ± SD (n = 6–8); read-out: IC50 inhibition of MCF-7 cells' viability
Procedure: (§4) The viability of MCF-7 and MDA-MB-231 cells was determined using a colorimetric WST-1 assay (Takara, Takara Bio Europe, Saint-Germain-en-Laye, France). Both cell lines were seeded at a density of 1 × 10^4 per well on 96-well plates and were cultured for 24 h to obtain 70% confluence. The following day, the cells were treated with various concentrations of compounds 1–9 diluted in the cell culture medium ([…]). The cells were incubated with tested compounds or pure medium (control) for 24 h (37 °C, 5% CO2). Afterwards, the cells were washed with 100 μL of culture medium, and then, the reagent dissolved in the medium was added (100 μL). The plates were incubated at the standard condition for 1.5 h, and the absorbance was read at 450 nm using a microplate reader (iMARK, Bio-Rad, Bio-Rad Laboratories Inc., Hercules, CA, USA). […] The results of samples treated with the test compounds were expressed as a percentage of the control samples. The data were presented as mean ± standard deviation (SD), n = 8. IC50 values (the concentration of the tested compound that inhibited cell growth by 50%) were calculated using a concentration-response curve (GraphPad Prism, Software, San Diego, CA, USA).
(§5) The concentrations contributing to the 50% of cell growth inhibition (IC50) were calculated using nonlinear regression analysis (fitting the curve to log (concentration) vs. cellular response).

[3] = tested on: MDA-MB-231 cells; experiment: Cell viability WST-1 assay, MDA-MB-231; format: cell-based; details: Homo sapiens, MDA-MB-231, 24 h, 3000 µmol/L, WST-1, 24 h; read-out: percentage of viability of MDA-MB-231 cells
Procedure: as §4, §5

[4] = tested on: OCTs; experiment: Inhibition of [14C]choline uptake in MDA-MB-231 cells (competitive inhibition assay); format: cell-based, human; details: mean ± SD (n = 3)
Procedure: (§6) The following day, after removal of the culture medium, the cells were carefully washed with prewarmed HBSS (Hanks’ balanced salt solution) containing 125 mM NaCl, 4.8 mM KCl, 1.2 mM MgSO4, 1.2 mM KH2PO4, 1.3 mM CaCl2, 5.6 mM glucose and 25 mM HEPES (pH 7.4). […] Then, the cells were washed three times with ice-cold HBSS (500 μL) and were lysed with 250 μL of 0.1-M NaOH in the ice bath, and the lysate was mixed with 1.0 mL of an emulsifier safe cocktail (PerkinElmer, Waltham, MA, USA). The radioactivity was measured by liquid scintillation counting (MicroBeta^2 counter, PerkinElmer, Waltham, MA, USA). The studies were carried out with the use of at least three replicates from the same cell passage.

[5] = tested on: MDA-MB-231 cells; experiment: Uptake in the presence of OCT and MATE inhibitors, MDA-MB-231 cells; format: in vitro ADME, human; details: summary from uptake with inhibitors
Procedure: (§7) The uptake of sulfonamide derivatives of metformin (1–9) in MCF-7 and MDA-MB-231 cells was studied also in the presence of disopyramide, cimetidine (OCT1 and 3 inhibitors), lopinavir (OCT and PMAT inhibitor) and methenamine (MATE and OCT2 inhibitors). The cells were incubated (37 °C, 10 min) with compounds 1–9 at concentrations of 400 and 800 μmol/L and inhibitors (disopyramide, cimetidine, lopinavir or methenamine) in 250 μL of prewarmed HBSS buffer. The protocol of determination of the compound concentration was as described above.

[6] = tested on: MCF-7 cells; experiment: Uptake in the presence of OCT and MATE inhibitors, MCF-7 cells; format: in vitro ADME, human; details: summary from uptake with inhibitors
Procedure: as §7

[7] = tested on: OCTs; experiment: Inhibition of [14C]choline uptake in MCF-7 cells (competitive inhibition assay); format: cell-based, human; details: mean ± SD (n = 3)
Procedure: as §6

[8] = tested on: MDA-MB-231 cells; experiment: Cellular uptake of metformin sulfonamides in MDA-MB-231 cells (HPLC); format: in vitro ADME, human
Procedure: as §1, §2, §3

[9] = tested on: MCF-7 cells; experiment: Intracellular GSH and GSSG, MCF-7; format: cell-based, human; details: MCF-7, 24 h, reference agents: Ascorbic acid 200 µM, AAPH 10 mM
Procedure: (§8) The quantitative determination of glutathione and glutathione disulfide was performed using the enzymatic recycling method according to the protocol of Rahman. The cells were seeded at a density of 2 × 10^5 per well in a 6-well plate and cultured for 48 h. Then, the cells were treated with tested compounds 1, 4 and 7 at their respective ¼ and ½ IC50 values for MCF-7 and MDA-MB-231 cells. Additionally, controls with pure medium, AAPH (2,2′-Azobis(2-methylpropionamidine) dihydro-chloride, Sigma Aldrich, St. Louis, MO, USA) and ascorbic acid (Polish Chemical Reagents, Poland) were performed. The cells were incubated with compounds for another 24 h, then washed twice with 2 mL of cold, Ca^2+-/Mg^2+-free PBS (Biomed Lublin, Lublin, Poland). The cells were harvested using 1-mL accutase (Sigma Aldrich, St. Louis, MO, USA), and the wells were washed with 1 mL of cold growth medium. The cells were transferred to prechilled 2.0-mL Eppendorf tubes and centrifuged at 1000× g for 5 min at 4 °C. The supernatant was discarded, the pellets were resuspended in 1 mL of cold PBS, the number of cells was determined in each sample and the cellular suspension was centrifuged again. PBS was discarded, and the pellets were stored covered with 30-µL PBS at –70 °C. The following day, the cells were suspended in 0.5 mL of ice-cold extraction buffer (0.1% Triton-X (Polish Chemical Reagents, Gliwice, Poland) and 0.6% sulfosalicylic acid (Sigma Aldrich) in a potassium phosphate buffer with EDTA (Sigma Aldrich)) and sonicated in icy water for 3 min with vortexing every 30 s. The cells were frozen once again at −80 °C, defrosted on ice and frozen once again. Following the second freeze–thaw cycle, the cells were centrifuged at 1500× g for 5 min at 4 °C, and then, immediately, the supernatant was transferred to prechilled Eppendorf tubes. The samples were divided into two parts: one was used to measure GSH, and the other one was derivatized by an addition of 4 µL of 2-vinylpyridine (diluted 1:10 with phosphate buffer) (Sigma Aldrich, St. Louis, MO, USA) to determine the GSSG content.
(§9) GSH measurements included an addition of 20 µL of the tested sample, blank or GSH standard, 120 µL of the mixture of an equal volume of DTNB solution (2 mg dissolved in 3 mL of phosphate buffer, Sigma Aldrich) and glutathione reductase (10 U in 3 mL of phosphate buffer, Sigma Aldrich, St. Louis, MO, USA) and 30 s of incubation to allow the conversion of GSSG to GSH. The final step included the addition of 60 µL of β-NADPH (2 mg dissolved in 3 mL of phosphate buffer, Sigma Aldrich). The absorbance was read immediately at 415 nm in a microplate reader (Bio-Rad), and the measurements were taken every 30 s for 2 min (6 readings in total). The amount of GSH was calculated on the basis of the calibration curve prepared using GSH (Sigma Aldrich, St. Louis, MO, USA) at concentrations ranging from 0.040 to 2.6 nmol/mL.
(§10) The quantification of GSSG in the test samples was performed according to the same procedure as GSH. The samples treated with 2-VP were incubated for one hour at room temperature, and then, 20 µL of the tested sample was analyzed using the same reagents which were applied in the GSH measurements. The amount of GSSG was calculated on the basis of the calibration curve, prepared using GSSG (Sigma Aldrich) at concentrations of 0.040–2.6 nmol/mL. The results are presented as mean ± SD, n = 6–8 and expressed as nmol per […].

[10] = tested on: MDA-MB-231 cells; experiment: Intracellular GSH and GSSG, MDA-MB-231; format: cell-based, human; details: MDA-MB-231, 24 h, reference agents: Ascorbic acid 200 µM, AAPH 10 mM
Procedure: as §8, §9, §10

[11] = 800 μmol/L, 10 min incubation, 37 °C
[12] = Eadie-Hofstee analysis, transporter I
[13] = Eadie-Hofstee analysis, transporter I, read-out: Km, transporter I, MDA-MB-231
[14] = Eadie-Hofstee analysis, transporter II
[15] = Eadie-Hofstee analysis, transporter II, read-out: Km, transporter II, MDA-MB-231

Compound | IC50 [2] [µM] | viability at 3000 µM [3] [%] | IC50 [4] [µM] | interactions with OCT, PMAT and MATE1 transporters, MDA-MB-231 [5] | interactions with OCT, PMAT and MATE1 transporters, MCF-7 [6] | IC50 [7] [µM] | Vmax, transporter I, MDA-MB-231 [8, 12] [nmol/min/mg] | Km [8, 13] [µM] | Vmax, transporter II, MDA-MB-231 [8, 14] [nmol/min/mg] | Km [8, 15] [µM] | GSH [9] [nmol/1 mln Cells] | GSH:GSSG Ratio [9] | GSSG [9] [nmol/1 mln Cells] | GSH [10] [nmol/1 mln Cells] | GSH:GSSG Ratio [10] | GSSG [10] [nmol/1 mln Cells] | further results
CN(C)C(=N)N=C(N)NS(=O)(=O)c1ccc(F)cc1 [Compound 9] | 422 ± 32.8 | ~60 | 1380 ± 14 | OCT1, OCT3 | PMAT | 1057 ± 7.5 | 0.097 ± 0.015 | 1880 ± 429 | 0.053 ± 0.012 | 2220 ± 618 | – | – | – | – | – | – | uptake into MCF-7 cells [1, 11]: 0.357 ± 0.112 nmol/min/mg protein; uptake into MDA-MB-231 cells [8, 11]: 0.021 ± 0.002 nmol/min/mg protein
O=C1O[C@H]([C@@H](O)CO)C(O)=C1O [Ascorbic acid, reference compound] | – | – | – | – | – | – | – | – | – | – | 153.1 ± 5.4 | 25.3 | 6.0 ± 0.4 | 249.6 ± 20.8 | 13.9 | 17.9 ± 1.5 | –
CN(C)C(=N)N=C(N)NS(=O)(=O)c1cccc(F)c1 [Compound 8] | 171 ± 13.6 | ~60 | 2284 ± 14 | OCT1, OCT3 | OCT1 | 7195 ± 5.3 | 0.049 ± 0.025 | 1240 ± 1310 | 0.045 ± 0.021 | 3380 ± 2130 | – | – | – | – | – | – | Vmax, transporter I, MCF-7 [1, 12]: 0.830 ± 0.171 nmol/min/mg; Km ([1]; Eadie-Hofstee analysis, transporter I, read-out: Km, transporter I, MCF-7): 2840 ± 778 µM; uptake into MCF-7 cells at higher concentrations ([1]; concentrations above 1600 μmol/L): 8–10 nmol/min/mg of protein; Vmax MDA-231 cells (Michaelis Menten curves) ([8]; Michaelis-Menten curve): 0.126 ± 0.032 nmol/min/mg; Km ([8]; Michaelis-Menten curve, read-out: Km MDA-231 cells (Michaelis Menten curves)): 7400 ± 510 µM; transport efficacy (Vmax/Km) in MCF-7 relative to MDA-MB-231 ([8]; fold lower in MDA-MB-231 than in MCF-7): approximately 22 fold
CC(C)(N=NC(C)(C)C(=N)N)C(=N)N.Cl.Cl [AAPH, 2,2′-Azobis(2-methylpropionamidine) dihydrochloride, reference compound] | – | – | – | – | – | – | – | – | – | – | 117.6 ± 7.8 | 8.9 | 12.8 ± 0.5 | 102.7 ± 3.2 | 6.9 | 14.3 ± 1.9 | –

Reference: PMC7177633, “Effective Cellular Transport of Ortho-Halogenated Sulfonamide Derivatives of Metformin Is Related to Improved Antiproliferative Activity and Apoptosis Induction in MCF-7 Cells” (International Journal of Molecular Sciences, 2020)
